We go through 3 compounds from ChEMBL document CHEMBL5653631, “A Potent and Selective ULK1 Inhibitor Suppresses Autophagy and Sensitizes Cancer Cells to Nutrient Stress” (iScience, 2018).

For test [1], the target named is MAP kinase-interacting serine/threonine-protein kinase 2 (Homo sapiens, UniProt Q9HBH9). As to the kind of experiment: Inhibition of human recombinant MNK2 at 15 nM in presence of ATP by radiometric assay relative to control.
Test [2] concerns the target Maternal embryonic leucine zipper kinase (Homo sapiens) (UniProt Q14680). As to the kind of experiment: Inhibition of human recombinant MELK at 15 nM related to control ULK1.
The target in test [3] is Tyrosine-protein kinase CSK (Homo sapiens) (UniProt P41240). As to the kind of experiment: Inhibition of human recombinant CSK at 40 nM in presence of ATP by radiometric assay relative to control.
Sequence of Tyrosine-protein kinase CSK (Homo sapiens) (P41240 2-450 limits assumed): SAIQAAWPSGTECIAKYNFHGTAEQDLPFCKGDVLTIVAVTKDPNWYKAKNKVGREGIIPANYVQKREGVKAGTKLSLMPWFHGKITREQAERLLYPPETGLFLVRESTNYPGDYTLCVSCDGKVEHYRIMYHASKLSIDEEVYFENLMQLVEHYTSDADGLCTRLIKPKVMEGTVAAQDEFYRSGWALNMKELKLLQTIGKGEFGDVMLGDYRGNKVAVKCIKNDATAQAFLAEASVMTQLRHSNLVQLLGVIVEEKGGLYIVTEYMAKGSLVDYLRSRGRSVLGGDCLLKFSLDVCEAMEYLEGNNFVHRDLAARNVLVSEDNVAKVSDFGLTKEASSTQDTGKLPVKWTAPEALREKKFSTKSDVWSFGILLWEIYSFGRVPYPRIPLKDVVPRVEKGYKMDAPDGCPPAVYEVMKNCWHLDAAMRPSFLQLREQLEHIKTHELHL
The target in test [4] is Insulin receptor-related protein (Homo sapiens) (UniProt P14616). Briefly: Inhibition of human recombinant IRR at 40 nM related to control ULK1.
Sequence of Insulin receptor-related protein (Homo sapiens) (P14616 27-742 limits assumed): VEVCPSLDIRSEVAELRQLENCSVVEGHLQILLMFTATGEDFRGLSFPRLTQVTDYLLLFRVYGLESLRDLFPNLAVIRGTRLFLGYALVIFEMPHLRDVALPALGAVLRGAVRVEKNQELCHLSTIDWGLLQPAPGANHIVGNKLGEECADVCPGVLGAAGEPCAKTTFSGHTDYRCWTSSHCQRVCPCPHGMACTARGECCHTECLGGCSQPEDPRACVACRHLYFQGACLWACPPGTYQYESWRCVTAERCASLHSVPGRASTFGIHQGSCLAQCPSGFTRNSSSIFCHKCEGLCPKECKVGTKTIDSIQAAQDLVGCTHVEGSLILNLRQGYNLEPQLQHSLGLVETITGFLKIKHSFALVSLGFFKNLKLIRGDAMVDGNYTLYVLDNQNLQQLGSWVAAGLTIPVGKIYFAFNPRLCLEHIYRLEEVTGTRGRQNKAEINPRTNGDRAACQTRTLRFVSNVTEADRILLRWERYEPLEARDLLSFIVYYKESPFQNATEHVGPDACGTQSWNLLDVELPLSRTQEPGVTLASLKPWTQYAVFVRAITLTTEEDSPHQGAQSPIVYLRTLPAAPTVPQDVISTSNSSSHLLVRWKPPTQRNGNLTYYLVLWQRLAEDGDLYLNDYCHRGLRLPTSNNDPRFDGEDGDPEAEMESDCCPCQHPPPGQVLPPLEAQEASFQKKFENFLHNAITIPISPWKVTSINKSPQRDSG
Sequence of Insulin receptor-related protein (Homo sapiens) (P14616 747-1297 limits assumed): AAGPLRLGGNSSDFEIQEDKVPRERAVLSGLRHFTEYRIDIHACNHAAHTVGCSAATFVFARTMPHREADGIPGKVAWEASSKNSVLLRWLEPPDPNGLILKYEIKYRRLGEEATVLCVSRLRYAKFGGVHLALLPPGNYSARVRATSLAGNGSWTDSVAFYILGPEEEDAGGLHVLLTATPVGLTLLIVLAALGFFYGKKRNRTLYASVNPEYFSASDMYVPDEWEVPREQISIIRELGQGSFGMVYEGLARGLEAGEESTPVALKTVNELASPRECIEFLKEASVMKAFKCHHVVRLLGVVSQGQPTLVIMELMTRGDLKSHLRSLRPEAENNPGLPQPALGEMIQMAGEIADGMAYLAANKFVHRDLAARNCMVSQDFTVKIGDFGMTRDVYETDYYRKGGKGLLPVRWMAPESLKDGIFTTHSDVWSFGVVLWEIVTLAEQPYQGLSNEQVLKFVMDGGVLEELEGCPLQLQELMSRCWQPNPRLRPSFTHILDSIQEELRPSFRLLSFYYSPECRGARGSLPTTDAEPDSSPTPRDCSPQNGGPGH
Test [5] concerns the target T1, Tyrosine-protein kinase JAK3 (Homo sapiens) (UniProt P52333).
T1 sequence (whole entry): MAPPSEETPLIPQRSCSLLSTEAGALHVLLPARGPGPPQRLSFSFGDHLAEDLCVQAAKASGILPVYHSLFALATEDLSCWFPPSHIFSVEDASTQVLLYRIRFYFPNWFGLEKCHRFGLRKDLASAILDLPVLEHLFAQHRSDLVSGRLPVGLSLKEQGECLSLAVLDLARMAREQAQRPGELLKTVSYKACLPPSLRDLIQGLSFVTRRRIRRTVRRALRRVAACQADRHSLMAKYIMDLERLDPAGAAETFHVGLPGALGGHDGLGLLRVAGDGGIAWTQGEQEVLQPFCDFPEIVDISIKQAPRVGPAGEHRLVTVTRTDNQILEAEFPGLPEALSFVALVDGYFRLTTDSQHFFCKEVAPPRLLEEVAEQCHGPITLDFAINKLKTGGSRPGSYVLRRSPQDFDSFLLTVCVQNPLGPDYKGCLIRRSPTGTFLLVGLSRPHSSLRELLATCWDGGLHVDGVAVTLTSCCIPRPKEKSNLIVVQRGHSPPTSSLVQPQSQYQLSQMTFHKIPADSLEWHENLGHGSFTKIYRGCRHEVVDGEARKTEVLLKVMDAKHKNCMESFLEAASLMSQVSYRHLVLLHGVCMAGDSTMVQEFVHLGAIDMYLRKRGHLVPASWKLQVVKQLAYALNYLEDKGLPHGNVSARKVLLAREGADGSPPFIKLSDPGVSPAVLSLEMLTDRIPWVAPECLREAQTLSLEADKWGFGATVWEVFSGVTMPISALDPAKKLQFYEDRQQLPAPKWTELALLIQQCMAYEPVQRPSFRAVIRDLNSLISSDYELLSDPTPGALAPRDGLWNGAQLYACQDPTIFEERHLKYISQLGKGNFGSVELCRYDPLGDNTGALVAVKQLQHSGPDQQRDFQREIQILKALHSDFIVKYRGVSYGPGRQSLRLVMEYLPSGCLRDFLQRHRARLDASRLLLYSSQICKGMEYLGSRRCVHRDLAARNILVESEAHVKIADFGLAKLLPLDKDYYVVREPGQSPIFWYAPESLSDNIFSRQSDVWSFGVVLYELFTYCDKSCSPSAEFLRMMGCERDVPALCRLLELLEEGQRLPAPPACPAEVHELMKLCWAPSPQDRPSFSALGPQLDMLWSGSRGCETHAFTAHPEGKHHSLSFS
As to the kind of experiment: Inhibition of human recombinant JAK3 at 40 nM related to control ULK1.

Test [6] concerns the target Mitogen-activated protein kinase 11 (Homo sapiens) (UniProt Q15759). Briefly: Inhibition of human recombinant p38beta at 40 nM related to control ULK1.
The target in test [7] is T2, Serine/threonine-protein kinase D3 (Homo sapiens) (UniProt O94806).
T2 sequence (whole entry): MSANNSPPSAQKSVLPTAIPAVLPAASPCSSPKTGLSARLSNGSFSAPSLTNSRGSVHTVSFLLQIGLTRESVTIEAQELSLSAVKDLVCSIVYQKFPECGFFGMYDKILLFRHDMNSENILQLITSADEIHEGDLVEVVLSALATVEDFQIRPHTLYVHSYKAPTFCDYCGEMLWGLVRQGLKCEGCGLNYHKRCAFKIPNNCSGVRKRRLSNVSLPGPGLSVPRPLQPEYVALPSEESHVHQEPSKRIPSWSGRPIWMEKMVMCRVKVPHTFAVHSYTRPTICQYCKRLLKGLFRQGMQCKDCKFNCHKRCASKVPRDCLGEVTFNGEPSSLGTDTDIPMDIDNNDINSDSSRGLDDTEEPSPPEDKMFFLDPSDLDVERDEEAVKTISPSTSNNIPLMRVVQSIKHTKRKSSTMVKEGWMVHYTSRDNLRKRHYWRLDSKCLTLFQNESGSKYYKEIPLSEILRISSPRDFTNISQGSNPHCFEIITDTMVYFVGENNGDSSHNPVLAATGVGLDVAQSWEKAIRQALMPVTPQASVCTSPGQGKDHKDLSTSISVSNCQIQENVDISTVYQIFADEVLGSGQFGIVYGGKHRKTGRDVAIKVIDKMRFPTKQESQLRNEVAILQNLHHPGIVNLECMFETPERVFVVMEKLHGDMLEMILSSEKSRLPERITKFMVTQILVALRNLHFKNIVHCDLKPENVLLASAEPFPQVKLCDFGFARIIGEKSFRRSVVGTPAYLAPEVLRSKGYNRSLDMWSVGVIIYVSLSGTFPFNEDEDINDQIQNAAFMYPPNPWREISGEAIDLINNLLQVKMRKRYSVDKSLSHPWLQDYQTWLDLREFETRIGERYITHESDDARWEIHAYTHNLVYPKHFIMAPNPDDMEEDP
Briefly: Inhibition of human recombinant PKD3 at 40 nM related to control ULK1.

Test [8] addresses Serine/threonine-protein kinase 10 (Homo sapiens) (UniProt O94804). As to the kind of experiment: Inhibition of human recombinant LOK at 500 nM related to control ULK1.

Sequence of MAP kinase-interacting serine/threonine-protein kinase 2 (Q9HBH9 whole entry, looked up): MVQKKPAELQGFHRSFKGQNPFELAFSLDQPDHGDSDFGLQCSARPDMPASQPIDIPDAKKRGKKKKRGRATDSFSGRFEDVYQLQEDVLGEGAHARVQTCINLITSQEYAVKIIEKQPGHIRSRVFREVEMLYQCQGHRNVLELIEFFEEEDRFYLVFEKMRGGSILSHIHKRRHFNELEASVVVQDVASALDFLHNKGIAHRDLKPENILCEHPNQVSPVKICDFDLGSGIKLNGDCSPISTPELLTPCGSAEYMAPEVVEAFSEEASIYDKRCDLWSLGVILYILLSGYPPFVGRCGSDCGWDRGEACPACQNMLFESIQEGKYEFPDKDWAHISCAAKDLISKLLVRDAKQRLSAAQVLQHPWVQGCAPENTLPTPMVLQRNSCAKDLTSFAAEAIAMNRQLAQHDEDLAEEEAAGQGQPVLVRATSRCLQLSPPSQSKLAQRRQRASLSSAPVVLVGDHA
Sequence of Mitogen-activated protein kinase 11 (Homo sapiens) (Q15759 whole entry): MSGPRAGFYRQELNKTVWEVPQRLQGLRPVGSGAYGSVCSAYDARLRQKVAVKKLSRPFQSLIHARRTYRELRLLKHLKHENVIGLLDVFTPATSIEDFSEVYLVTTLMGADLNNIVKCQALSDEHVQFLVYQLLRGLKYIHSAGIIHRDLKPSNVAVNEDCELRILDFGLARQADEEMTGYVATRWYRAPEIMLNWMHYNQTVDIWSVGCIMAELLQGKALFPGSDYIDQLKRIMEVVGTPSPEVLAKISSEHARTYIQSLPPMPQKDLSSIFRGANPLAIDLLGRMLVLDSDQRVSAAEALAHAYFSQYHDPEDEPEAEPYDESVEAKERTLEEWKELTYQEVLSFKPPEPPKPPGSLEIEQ
Sequence of Maternal embryonic leucine zipper kinase (Homo sapiens) (Q14680 whole entry, looked up): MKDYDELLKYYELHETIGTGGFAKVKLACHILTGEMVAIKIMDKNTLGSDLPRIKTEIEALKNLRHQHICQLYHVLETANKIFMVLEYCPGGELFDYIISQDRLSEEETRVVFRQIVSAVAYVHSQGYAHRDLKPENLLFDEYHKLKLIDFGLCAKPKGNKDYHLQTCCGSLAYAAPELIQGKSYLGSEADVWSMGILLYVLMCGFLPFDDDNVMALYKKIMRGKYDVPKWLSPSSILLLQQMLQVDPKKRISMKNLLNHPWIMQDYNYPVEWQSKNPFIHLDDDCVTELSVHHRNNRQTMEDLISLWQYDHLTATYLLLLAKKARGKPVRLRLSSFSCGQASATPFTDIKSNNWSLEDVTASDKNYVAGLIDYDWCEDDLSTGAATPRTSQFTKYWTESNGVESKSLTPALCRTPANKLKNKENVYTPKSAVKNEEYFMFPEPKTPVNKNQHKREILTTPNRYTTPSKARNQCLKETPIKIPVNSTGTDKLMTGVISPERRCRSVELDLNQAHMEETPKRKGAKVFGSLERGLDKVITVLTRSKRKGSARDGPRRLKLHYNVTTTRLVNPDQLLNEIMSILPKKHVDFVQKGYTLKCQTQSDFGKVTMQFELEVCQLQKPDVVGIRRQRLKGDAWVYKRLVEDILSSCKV
Sequence of Serine/threonine-protein kinase 10 (Homo sapiens) (O94804 whole entry, looked up): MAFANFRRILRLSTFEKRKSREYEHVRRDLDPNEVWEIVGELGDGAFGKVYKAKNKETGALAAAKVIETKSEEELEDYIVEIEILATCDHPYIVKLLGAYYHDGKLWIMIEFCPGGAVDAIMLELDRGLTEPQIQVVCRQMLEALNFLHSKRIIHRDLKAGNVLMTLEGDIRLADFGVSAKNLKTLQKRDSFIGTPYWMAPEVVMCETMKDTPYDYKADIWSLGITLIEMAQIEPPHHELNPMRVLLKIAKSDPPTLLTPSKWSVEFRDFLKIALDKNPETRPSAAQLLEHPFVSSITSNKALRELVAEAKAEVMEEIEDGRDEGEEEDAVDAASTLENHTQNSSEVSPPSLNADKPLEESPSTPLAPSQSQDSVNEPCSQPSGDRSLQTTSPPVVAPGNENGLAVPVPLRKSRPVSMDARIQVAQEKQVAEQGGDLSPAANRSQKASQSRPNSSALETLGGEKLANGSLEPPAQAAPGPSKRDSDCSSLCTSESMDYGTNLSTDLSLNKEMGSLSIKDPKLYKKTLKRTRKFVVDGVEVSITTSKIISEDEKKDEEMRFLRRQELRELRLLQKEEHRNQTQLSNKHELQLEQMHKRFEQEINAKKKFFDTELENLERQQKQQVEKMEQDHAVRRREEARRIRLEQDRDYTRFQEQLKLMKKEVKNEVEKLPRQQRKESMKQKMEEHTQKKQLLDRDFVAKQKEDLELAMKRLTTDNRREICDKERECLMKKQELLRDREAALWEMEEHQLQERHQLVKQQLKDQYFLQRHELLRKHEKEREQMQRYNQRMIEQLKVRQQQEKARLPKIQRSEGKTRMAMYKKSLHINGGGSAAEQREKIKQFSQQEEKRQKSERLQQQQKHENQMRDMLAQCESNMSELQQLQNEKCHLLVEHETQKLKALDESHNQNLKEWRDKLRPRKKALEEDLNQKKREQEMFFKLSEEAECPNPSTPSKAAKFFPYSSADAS

`CC(C)[C@H](NC(=O)c1cc(-c2cnn3cc(-c4ccc(OCCN5CCCCC5)cc4)cnc23)cs1)C(F)(F)F`: the inhibition (commonly how much of the control response was suppressed) in test [1] amounted to 26%. Further, the fold change (FC) in test [2] stood at 0.76.
As for `O=C(N[C@@H](C1CC1)C(F)(F)F)c1cc(-c2cnn3cc(-c4ccc(F)cc4)cnc23)cs1`, in test [3], the inhibition stood at 0%. The fold change (FC) in test [4] stood at 0.03; in test [5], 0; in test [6], 0.14; in test [7], 0.1.
With `CNC(=O)c1ccccc1Oc1nc(Nc2cc(OC)c(OC)c(OC)c2)ncc1Br`, the fold change (FC) in test [8] came out at 0.
